Assay results as given in ChEMBL document CHEMBL1127062 (J Med Chem, 1993).

What follows are compounds tested against Ryanodine receptor 1 (Oryctolagus cuniculus, UniProt P11716) (assay: Affinity for sarcoplasmic reticular calcium release channel (SR CRC) of rabbit skeletal membrane vesicles).
Chain of Ryanodine receptor 1 (P11716 whole entry): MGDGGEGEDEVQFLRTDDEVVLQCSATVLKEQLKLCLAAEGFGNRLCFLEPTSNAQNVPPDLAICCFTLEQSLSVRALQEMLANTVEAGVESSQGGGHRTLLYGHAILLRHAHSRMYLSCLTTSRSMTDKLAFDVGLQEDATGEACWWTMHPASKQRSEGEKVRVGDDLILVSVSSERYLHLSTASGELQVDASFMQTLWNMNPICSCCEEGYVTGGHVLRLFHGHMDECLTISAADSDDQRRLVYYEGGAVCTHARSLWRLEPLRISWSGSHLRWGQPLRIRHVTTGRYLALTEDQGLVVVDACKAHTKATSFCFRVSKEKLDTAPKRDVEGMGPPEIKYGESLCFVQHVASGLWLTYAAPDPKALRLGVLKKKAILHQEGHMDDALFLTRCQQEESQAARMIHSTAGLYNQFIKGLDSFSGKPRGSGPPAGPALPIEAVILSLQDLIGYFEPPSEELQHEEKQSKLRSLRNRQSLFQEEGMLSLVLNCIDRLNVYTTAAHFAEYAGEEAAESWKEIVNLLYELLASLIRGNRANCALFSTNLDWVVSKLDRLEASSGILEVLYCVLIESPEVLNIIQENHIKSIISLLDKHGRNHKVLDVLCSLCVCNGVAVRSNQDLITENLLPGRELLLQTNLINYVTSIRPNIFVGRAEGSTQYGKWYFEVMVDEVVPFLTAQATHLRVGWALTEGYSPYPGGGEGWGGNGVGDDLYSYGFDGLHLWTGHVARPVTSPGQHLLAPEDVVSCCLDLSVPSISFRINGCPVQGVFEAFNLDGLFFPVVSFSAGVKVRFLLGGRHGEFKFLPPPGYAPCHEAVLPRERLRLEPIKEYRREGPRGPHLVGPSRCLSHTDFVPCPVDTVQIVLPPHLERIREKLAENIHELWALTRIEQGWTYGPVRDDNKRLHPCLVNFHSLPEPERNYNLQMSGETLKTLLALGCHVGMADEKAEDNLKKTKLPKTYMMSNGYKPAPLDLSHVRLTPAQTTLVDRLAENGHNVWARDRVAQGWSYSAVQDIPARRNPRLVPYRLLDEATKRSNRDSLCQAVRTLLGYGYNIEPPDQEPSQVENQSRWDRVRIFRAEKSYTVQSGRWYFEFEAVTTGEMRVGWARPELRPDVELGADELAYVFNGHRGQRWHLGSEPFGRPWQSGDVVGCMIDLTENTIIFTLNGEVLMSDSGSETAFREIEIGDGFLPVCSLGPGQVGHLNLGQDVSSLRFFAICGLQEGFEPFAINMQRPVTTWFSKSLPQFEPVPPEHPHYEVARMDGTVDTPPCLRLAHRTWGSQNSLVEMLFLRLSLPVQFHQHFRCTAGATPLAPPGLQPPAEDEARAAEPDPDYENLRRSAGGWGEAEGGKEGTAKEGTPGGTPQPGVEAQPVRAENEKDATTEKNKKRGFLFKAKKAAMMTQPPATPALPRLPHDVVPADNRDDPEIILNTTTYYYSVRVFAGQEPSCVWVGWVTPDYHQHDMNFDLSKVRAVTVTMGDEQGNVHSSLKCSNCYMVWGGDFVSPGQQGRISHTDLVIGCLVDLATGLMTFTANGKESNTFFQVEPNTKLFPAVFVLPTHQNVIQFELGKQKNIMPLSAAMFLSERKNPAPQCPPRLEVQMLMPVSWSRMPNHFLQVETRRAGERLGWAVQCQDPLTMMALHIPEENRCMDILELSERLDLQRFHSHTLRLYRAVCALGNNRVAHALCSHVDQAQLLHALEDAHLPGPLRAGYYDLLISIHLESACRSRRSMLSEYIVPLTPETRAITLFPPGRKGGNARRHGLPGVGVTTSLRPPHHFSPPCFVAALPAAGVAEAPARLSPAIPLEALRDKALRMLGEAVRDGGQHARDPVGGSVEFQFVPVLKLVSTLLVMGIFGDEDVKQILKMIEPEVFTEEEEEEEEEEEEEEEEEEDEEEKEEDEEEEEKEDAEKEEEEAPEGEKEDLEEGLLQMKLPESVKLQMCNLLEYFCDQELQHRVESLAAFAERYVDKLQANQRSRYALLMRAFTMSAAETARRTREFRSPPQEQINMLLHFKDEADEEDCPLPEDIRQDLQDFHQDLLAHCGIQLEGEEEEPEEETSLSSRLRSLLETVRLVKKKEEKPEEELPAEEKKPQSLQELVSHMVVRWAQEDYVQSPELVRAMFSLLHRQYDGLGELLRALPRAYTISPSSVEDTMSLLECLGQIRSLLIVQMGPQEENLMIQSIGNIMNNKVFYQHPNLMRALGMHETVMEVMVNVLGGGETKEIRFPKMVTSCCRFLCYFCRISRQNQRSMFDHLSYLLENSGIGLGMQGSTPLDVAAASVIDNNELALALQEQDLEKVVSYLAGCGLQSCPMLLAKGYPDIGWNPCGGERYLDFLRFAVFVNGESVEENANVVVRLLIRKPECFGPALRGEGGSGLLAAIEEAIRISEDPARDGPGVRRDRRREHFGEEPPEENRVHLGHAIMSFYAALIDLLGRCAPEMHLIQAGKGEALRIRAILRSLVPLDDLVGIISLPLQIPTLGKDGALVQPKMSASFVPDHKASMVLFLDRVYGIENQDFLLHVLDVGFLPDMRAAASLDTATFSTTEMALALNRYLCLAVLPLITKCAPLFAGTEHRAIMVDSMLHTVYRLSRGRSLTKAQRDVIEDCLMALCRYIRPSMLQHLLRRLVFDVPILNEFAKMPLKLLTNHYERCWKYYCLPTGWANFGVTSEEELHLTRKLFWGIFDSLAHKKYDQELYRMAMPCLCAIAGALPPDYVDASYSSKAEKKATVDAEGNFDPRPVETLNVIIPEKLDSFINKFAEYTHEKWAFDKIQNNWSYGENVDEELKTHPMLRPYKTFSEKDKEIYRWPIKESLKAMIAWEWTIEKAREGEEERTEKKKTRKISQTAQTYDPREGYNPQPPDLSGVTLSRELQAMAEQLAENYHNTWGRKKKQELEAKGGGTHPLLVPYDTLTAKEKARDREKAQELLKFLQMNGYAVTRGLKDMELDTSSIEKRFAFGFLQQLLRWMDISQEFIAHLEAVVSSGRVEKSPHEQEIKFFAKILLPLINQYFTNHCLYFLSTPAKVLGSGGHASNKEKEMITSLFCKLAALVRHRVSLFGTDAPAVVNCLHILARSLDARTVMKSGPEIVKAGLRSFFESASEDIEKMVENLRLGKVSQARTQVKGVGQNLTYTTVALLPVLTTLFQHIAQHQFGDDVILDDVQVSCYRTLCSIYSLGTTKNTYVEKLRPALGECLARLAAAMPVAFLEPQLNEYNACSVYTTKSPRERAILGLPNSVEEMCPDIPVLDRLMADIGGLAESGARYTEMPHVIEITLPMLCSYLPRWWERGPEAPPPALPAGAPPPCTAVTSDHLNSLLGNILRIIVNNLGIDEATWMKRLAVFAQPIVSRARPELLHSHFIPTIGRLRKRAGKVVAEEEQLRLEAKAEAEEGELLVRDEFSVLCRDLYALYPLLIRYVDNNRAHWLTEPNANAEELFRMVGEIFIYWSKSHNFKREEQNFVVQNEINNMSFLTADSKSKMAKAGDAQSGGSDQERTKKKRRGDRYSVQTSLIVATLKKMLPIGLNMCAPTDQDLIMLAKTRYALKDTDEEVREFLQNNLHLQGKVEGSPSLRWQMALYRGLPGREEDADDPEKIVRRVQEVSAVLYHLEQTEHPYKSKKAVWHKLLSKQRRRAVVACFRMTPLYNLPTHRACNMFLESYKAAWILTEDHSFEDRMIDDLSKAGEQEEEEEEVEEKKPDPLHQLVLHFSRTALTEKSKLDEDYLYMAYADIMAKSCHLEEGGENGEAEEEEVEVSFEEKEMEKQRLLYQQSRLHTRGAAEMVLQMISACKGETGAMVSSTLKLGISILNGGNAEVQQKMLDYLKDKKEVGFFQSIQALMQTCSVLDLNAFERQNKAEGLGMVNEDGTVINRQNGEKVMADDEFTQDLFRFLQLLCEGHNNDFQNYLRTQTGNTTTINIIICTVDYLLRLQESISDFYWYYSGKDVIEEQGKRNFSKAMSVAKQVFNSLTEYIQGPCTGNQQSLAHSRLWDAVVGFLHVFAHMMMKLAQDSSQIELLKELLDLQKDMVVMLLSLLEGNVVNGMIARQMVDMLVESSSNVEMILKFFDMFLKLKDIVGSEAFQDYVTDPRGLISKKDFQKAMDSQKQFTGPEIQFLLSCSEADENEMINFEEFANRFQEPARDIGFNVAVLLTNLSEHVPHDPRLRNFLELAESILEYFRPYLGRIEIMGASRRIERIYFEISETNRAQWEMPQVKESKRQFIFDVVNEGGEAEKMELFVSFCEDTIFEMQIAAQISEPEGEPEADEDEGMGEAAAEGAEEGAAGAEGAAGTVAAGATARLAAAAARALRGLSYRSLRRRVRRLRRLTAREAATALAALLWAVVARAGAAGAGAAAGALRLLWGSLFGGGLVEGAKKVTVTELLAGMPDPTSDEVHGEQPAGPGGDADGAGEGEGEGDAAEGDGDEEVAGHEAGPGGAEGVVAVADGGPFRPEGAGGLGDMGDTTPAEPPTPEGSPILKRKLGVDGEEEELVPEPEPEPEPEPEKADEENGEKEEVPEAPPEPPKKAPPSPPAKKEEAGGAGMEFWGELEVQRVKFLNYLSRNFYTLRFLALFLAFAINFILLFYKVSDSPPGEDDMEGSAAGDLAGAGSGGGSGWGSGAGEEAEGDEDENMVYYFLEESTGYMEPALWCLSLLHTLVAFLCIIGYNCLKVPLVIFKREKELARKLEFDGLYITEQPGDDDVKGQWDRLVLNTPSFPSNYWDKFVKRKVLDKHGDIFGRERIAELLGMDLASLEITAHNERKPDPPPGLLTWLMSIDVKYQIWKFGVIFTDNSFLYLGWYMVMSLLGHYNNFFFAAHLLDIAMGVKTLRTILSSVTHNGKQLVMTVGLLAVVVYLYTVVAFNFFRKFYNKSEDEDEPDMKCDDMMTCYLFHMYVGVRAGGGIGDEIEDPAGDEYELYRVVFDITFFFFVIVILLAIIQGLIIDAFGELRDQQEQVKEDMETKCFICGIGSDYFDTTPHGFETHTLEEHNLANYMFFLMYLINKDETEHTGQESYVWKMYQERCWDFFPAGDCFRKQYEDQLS
Compound `CC1CCC2(O)C3(OC4(O)C[C@]2(C)C2(O)[C@H](OC(=O)c5ccc[nH]5)C(O)(C(C)C)C4(C)C32O)[C@@H]1OC(=O)CNC(=O)OCc1ccccc1` (some centres not stated) has an IC50 of 4.8 nM.
`CC1CCC2(O)C3(OC4(O)C[C@]2(C)C2(O)[C@H](OC(=O)c5ccc[nH]5)C(O)(C(C)C)C4(C)C32O)[C@@H]1OC(=O)CCN=C(N)N` (some centres not stated) gave an IC50 of 1.1 nM.
In the case of `CC1CCC2(O)C3(OC4(O)C[C@]2(C)C2(O)[C@H](OC(=O)c5ccc[nH]5)C(O)(C(C)C)C4(C)C32O)[C@@H]1OC(=O)CNC(=N)N` (some centres not stated), the IC50 is reported as 1.8 nM.
`CC1CCC2(O)C3(OC4(O)C[C@]2(C)C2(O)[C@H](OC(=O)c5ccc[nH]5)C(O)(C(C)C)C4(C)C32O)[C@@H]1OC(=O)CCN` (some centres not stated) gave an IC50 of 2.6 nM.
Compound `CC1CCC2(O)C3(OC4(O)C[C@]2(C)C2(O)[C@H](OC(=O)c5ccc[nH]5)C(O)(C(C)C)C4(C)C32O)[C@@H]1OC(=O)CCNC(=O)OCc1ccccc1` (some centres not stated) has an IC50 of 5.9 nM.
`CC1CCC2(O)C3(OC4(O)C[C@]2(C)C2(O)[C@H](OC(=O)c5ccc[nH]5)C(O)(C(C)C)C4(C)C32O)[C@@H]1OC(=O)CCC(=O)O` (some centres not stated) was tested, and the IC50 was over 1000 nM.
For `CNC(=O)CCC(=O)O[C@@H]1C(C)CCC2(O)C13OC1(O)C[C@]2(C)C2(O)[C@H](OC(=O)c4ccc[nH]4)C(O)(C(C)C)C1(C)C32O` (some centres not stated), the IC50 was 49.4 nM.
`C=C1CCC2(O)C3(OC4(O)C[C@]2(C)C2(O)[C@H](OC(=O)c5ccc[nH]5)C(O)(C(C)C)C4(C)C32O)[C@@H]1O` (stereo in doubt) [ANHYDRORYANIDINE] was tested, and the IC50 was over 10000 nM.
Compound `CC1CCC2(O)C3(OC4(O)C[C@]2(C)C2(O)[C@H](OC(=O)c5ccc[nH]5)C(O)(C(C)C)C4(C)C32O)[C@@H]1OC(=O)CN` (some centres not stated) [GLYCYLRYANODINE] has an IC50 of 1.8 nM.
`C=C1CCC2(O)C3(OC4(O)C[C@]2(C)C2(O)[C@H](OC(=O)c5ccc[nH]5)C(O)(C(C)C)C4(C)C32O)[C@@H]1O` (stereo in doubt; 2) [ANHYDRORYANIDINE] gave an IC50 of 8.9 nM.
In the case of `CC1CCC2(O)C3(OC4(O)C[C@]2(C)C2(O)[C@H](OC(=O)c5ccc[nH]5)C(O)(C(C)C)C4(C)C32O)[C@@H]1OC(=O)CNC(=NC(=O)OCc1ccccc1)NC(=O)OCc1ccccc1` (some centres not stated), the IC50 is reported as 136 nM.
Compound `CC1CCC2(O)C3(OC4(O)C[C@]2(C)C2(O)[C@H](OC(=O)c5ccc[nH]5)C(O)(C(C)C)C4(C)C32O)[C@@H]1OC(=O)CCN=C(NC(=O)OCc1ccccc1)NC(=O)OCc1ccccc1` (some centres not stated) has an IC50 of 43.6 nM.
